Data from patent US20230128137A1, “BENZO FIVE-MEMBERED CYCLIC COMPOUND” (MEDSHINE DISCOVERY INC., priority 2020, published 2023).

What was measured:
[1] = Liver microsome metabolic stability in vitro, beagle dog; assay type: in vitro ADME; details: beagle dog liver microsomes; for Remaining (T = 60 min): 60 min incubation
Protocol: (§1) 3.2 preparation of nicotinamide adenine dinucleotide phosphate cofactor solution: an appropriate amount of NADPH powder was weighed and diluted into 10 mM magnesium chloride solution (working solution concentration: 10 unit/mL; final concentration of reaction system: 1 unit/mL);
(§2) 3.3 preparation of liver microsomes: an appropriate concentration working solution of liver microsomes (human, SD rat, CD-1 mouse, beagle dog) was prepared in 100 mM potassium phosphate buffer;
(§3) 3.4 preparation of quenching solution: cold (4° C.) acetonitrile containing 200 ng/mL tolbutamide and 200 ng/mL labetalol as internal standard (IS) was used as quenching solution;
(§4) 3.5 experimental operation:
(§5) a. empty “incubation” plates T60 and NCF60 were preheated for 10 minutes;
(§6) b. the liver microsomes were diluted to 0.56 mg/mL with 100 mM phosphate buffer;
(§7) c. 445 μL of microsomal working solution (0.56 mg/mL) was transferred to the preheated “incubation” plates T60 and NCF60, and then the“incubation” plates T60 and NCF60 were preincubated for 10 min with continuous shaking at 37° C. 54 μL of liver microsomes were transferred to a blank plate, and 6 μL of NAPDH cofactor was added to the blank plate, and then 180 μL of quenching solution was added thereto;
(§8) e. for NCF60 plate, 50 μL of buffer was added thereto and the mixture was fully mixed for three times. Timing was started; the plate was shaken at 37° C. for 60 minutes;
(§9) f. in “quenching” plate TO, 180 μL of quenching solution and 6 μL of NAPDH cofactor were addded to make sure that the plate was cooled down to prevent evaporation;
(§10) g. for T60 plates, the mixture was fully mixed for three times, and 54 μL of mixture was immediately transferred to the “quenching” plate at the 0 min time point. 44 μL of NAPDH cofactor was then added to the culture plate (T60). Timing was started; the plate was shaken at 37° C. for 60 minutes;
(§11) h. at 5, 10, 20, 30 and 60 min, 180 μL of quenching solution was added to the “quenching” plate, and the mixture was mixed for one time, and 60 μL of sample was continuously transferred from the T60 plate to the “quenching” plate at each time point;
(§12) i. for NCF60: the mixture was mixed for one time, and 60 μL of sample was transferred from the NCF60 culture dish to the “quenching” plate containing quenching solution at 60 minutes time point;
(§13) j. all sampling plates were shaked for 10 minutes, then centrifuged at 4000 rpm for 20 minutes at 4° C.;
(§14) k. 60 μL of supernatant was transferred into 180 μL of HPLC water and stirred with a plate shaker for 10 min;
(§15) 1. before LC-MS/MS analysis, each bioanalysis plate was sealed and shaked for 10 minutes.

[2] = Liver microsome metabolic stability in vitro, SD rat; assay type: in vitro ADME; details: SD rat liver microsomes; for Remaining (T = 60 min): 60 min incubation
Protocol: as §1, §2, §3, §4, §5, §6, §7, §8, §9, §10, §11, §12, §13, §14, §15

[3] = Liver microsome metabolic stability in vitro, human; assay type: in vitro ADME; details: human liver microsomes; for Remaining (T = 60 min): 60 min incubation
Protocol: as §1, §2, §3, §4, §5, §6, §7, §8, §9, §10, §11, §12, §13, §14, §15

[4] = Liver microsome metabolic stability in vitro, CD-1 mouse; assay type: in vitro ADME; details: CD-1 mouse liver microsomes; for Remaining (T = 60 min): 60 min incubation
Protocol: as §1, §2, §3, §4, §5, §6, §7, §8, §9, §10, §11, §12, §13, §14, §15

RS4;11 cells = experiment: CTG (CellTiter-Glo) test of inhibition of RS4;11 cell proliferation; assay type: cell-based; details: Homo sapiens, 72 hours incubation
Protocol: 2.1 Experimental objectives: To obtain the IC50 value of the test compound in RS4;11 cell lines;
2.2 incubation time: 72 hours;
2.3 experimental method: CTG (Cell Titer-Glo™ Luminescent Cell Viability Assay);
a. when the cells were fused to 80%, the cells were collected and counted;
b. RS4; 11 cell suspension was diluted to 5000 cells/well and 20 uls of cell suspension was seeded in each well of 384-well plate;
c. the cell plates were placed back to 37° C. and incubated in a 5% carbon dioxide incubator for 24 hours;
d. the test compound was prepared into DMSO solution, and 5 μL of each was added to the designated well of the test plate, and the final concentration of DMSO solution was 0.5%;
e. initiation cell viability was detected by CTG;
f. the test plate was put back into the incubator and incubated for another 72 hours;
g. after 72 hours incubation, CellTiter-Glo™ luminescent cell viability assay was completed according to the manufacturer's manual;

Bcl-2 = molecular target: T1, Bcl-2 (Homo sapiens, UniProt P10415); experiment: HTRF competition test, Bcl-2 with FAM-BAK peptide (enzymology experiment); assay type: binding; details: 4 nM Bcl-2 and 100 nM FAM-BAK, read-out: IC50 (nM) for inhibition of Bcl-2 enzyme
T1 construct: Human recombinant Bcl-2 (amino acid 1-207); purchased Reaction Biology Corporation (RBC) APT-11-441; host or cells: E. coli
Protocol: (§16) This experiment was based on the competition between fluorescently-labeled Bak/Bad/Noxa peptides and GST-labeled Bcl family proteins. The fluorescence detection method based on HTRF was to observe the binding degree by using the fluorescence ratio between Tb-labeled anti-GST and FAM-labeled peptides. This peptide binds to the surface of the Bcl family protein pocket, which is essential for its anti-apoptotic function.
(§17) 1.1 Experimental reagents: analysis buffer: 20 mM potassium phosphate, pH 7.5, 50 mM sodium chloride, 1 mM EDTA, 0.005% Tritonx-100 and 1% DMSO.
(§18) 1.2 Probe: 5,6-FAM-peptide
(§19) 1.4 Experimental Conditions:
4 nM Bcl-2 and 100 nM FAM-BAK
(§20) a) The Bcl enzyme reaction solution was prepared in the newly prepared analysis buffer;
(§21) b) the Bcl enzyme reaction solution was provided;
(§22) c) the compound was first prepared into a 100% dimethyl sulfoxide solution, and then the compound solution was mixed with the Bcl enzyme reaction solution using (Echo550; nanoliter range) technology, and co-incubated for 10 minutes;
(§23) d) the FAM peptide solution was added.
(§24) e) the mixed solution was gently stirred in dark and room temperature, and co-cultured for 10 minutes.
(§25) f) Anti-GST solution was added.
(§26) g) The mixed solution was gently stirred in dark and room temperature, and co-cultured for 1 hour.
(§27) h) The HTRF high-frequency fluorescence ratio was tested, and the IC50 values were calculated.

Bcl-xL = molecular target: T2, Bcl-xL (Homo sapiens, UniProt Q07817); experiment: HTRF competition test, Bcl-xL with FAM-Bad peptide (enzymology experiment); assay type: binding; details: 3 nM Bcl-xL and 40 nM FAM-Bad, read-out: IC50 (nM) for inhibition of Bcl-xL enzyme
T2 construct: Human recombinant Bcl-xL (amino acid 1-209); purchased Reaction Biology Corporation (RBC) APT-11-442; host or cells: E. coli
Protocol: as §16, §17, §18, §19
3 nM Bcl-xL and 40 nM FAM-Bad
as §20, §21, §22, §23, §24, §25, §26, §27

T1 sequence (P10415 1-207): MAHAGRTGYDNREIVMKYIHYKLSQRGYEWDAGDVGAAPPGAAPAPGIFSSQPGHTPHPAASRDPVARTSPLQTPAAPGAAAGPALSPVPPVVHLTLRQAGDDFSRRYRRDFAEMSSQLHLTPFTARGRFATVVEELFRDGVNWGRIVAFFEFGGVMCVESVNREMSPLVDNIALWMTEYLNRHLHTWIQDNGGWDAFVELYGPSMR
T2 sequence (Q07817 1-209): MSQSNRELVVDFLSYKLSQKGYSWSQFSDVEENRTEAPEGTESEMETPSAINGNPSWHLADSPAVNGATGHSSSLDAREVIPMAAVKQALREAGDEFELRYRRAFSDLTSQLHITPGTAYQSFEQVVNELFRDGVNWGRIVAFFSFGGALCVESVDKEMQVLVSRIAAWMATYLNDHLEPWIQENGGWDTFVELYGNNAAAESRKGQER

Compound: O=C(O)Cc1ccccc1Nc1c(Cl)cccc1Cl [Diclofenac]
- CLint scaled at 1 µM [1]: < 13.8 mL/min/kg
- half-life at 1 µM [1]: > 145 min
- Remaining (T = 60 min) [1]: 101%
- CLint scaled at 1 µM [2]: 174 mL/min/kg
- T1/2 [2]: 14.4 min
- Remaining (T = 60 min) [2]: 5.2%
- Remaining (T = 60 min) [3]: 0.0%
- half-life at 1 µM [4]: 63.5 min
- Remaining (T = 60 min) [4]: 53.0%

Compound: CC1(C)CCC(CN2CCN(c3ccc(C(=O)NS(=O)(=O)c4cc([N+](=O)[O-])c(NCC5CCOCC5)c5[nH]ccc45)c(Oc4cnc5[nH]ccc5c4)c3)CC2)=C(c2ccc(Cl)cc2)C1 [Compound 1]
- IC50 (RS4;11 cells): 1.4 nM

Compound: CC1(C)CCC(CN2CCN(c3ccc(C(=O)NS(=O)(=O)c4cc([N+](=O)[O-])c(NCC5COCCO5)c5[nH]cnc45)c(Oc4cnc5[nH]ccc5c4)c3)CC2)=C(c2ccc(Cl)cc2)C1 (centres unmarked) [Compound 7]
- IC50 (RS4;11 cells): 6.8 nM

Compound: Cn1cnc2c(NCC3CCOCC3)c([N+](=O)[O-])cc(S(=O)(=O)NC(=O)c3ccc(N4CCN(CC5=C(c6ccc(Cl)cc6)CC(C)(C)CC5)CC4)cc3Oc3cnc4[nH]ccc4c3)c21 [Compound 6]
- IC50 (Bcl-2): 2.4 nM
- IC50 (RS4;11 cells): 4.6 nM
- IC50 (Bcl-xL): 173 nM

Compound: Cc1nc2c(S(=O)(=O)NC(=O)c3ccc(N4CCN(CC5=C(c6ccc(Cl)cc6)CC(C)(C)CC5)CC4)cc3Oc3cnc4[nH]ccc4c3)cc([N+](=O)[O-])c(NCC3CCOCC3)c2[nH]1 [Compound 9]
- IC50 (Bcl-2): 3.6 nM
- IC50 (RS4;11 cells): 1.9 nM
- IC50 (Bcl-xL): 326 nM

Compound: Cn1cnc2c(S(=O)(=O)NC(=O)c3ccc(N4CCN(CC5=C(c6ccc(Cl)cc6)CC(C)(C)CC5)CC4)cc3Oc3cnc4[nH]ccc4c3)cc([N+](=O)[O-])c(NCC3CCOCC3)c21 [Compound 8]
- IC50 (Bcl-2): 1.3 nM
- IC50 (RS4;11 cells): 6.5 nM
- IC50 (Bcl-xL): 1110 nM

Compound: C[C@]12CC[C@H]3[C@@H](CCC4=CC(=O)CC[C@@]43C)[C@@H]1CC[C@@H]2O [Testosterone]
- CLint scaled at 1 µM [1]: 81 mL/min/kg
- T1/2 [1]: 24.6 min
- Remaining (T = 60 min) [1]: 19%
- CLint scaled at 1 µM [2]: 2180 mL/min/kg
- T1/2 [2]: 1.1 min
- Remaining (T = 60 min) [2]: 0.0%
- Remaining (T = 60 min) [3]: 5.7%
- CLint scaled at 1 µM ([3]; human): 155 mL/min/kg
- half-life at 1 µM ([3]; human): 8.9 min
- CLint scaled at 1 µM [4]: 1370 mL/min/kg
- T1/2 [4]: 4.0 min
- Remaining (T = 60 min) [4]: 0.0%

Compound: CC1(C)CCC(CN2CC=C(c3ccc(C(=O)NS(=O)(=O)c4cc([N+](=O)[O-])c(NCC5CCOCC5)c5[nH]cnc45)c(Oc4ccc5[nH]ccc5c4)c3)CC2)=C(c2ccc(Cl)cc2)C1 [Compound 5]
- IC50 (Bcl-2): 2.6 nM
- IC50 (RS4;11 cells): 10.2 nM
- IC50 (Bcl-xL): 504 nM
